{"source": "patent US9987296B2", "about": "“Compositions including anthocyanin or anthocyanidin for the prevention or treatment of Articular cartilage-associated conditions” (priority 2008, dated 2018)", "key": {"human cartilage explants": {"test_system": "human cartilage explants", "test": "Cartilage breakdown as determined by GAG release in human cartilage explants", "type": "cell-based", "conditions": "for GAG release under basal conditions: high dose (50 ug/mL) alone, no IL-1; for IL-1 induced GAG release (chondroprotection): human cartilage explants, IL-1 plus test agent 5 or 50 ug/mL, 72 hours", "source_text": "Human osteoarthritic cartilage samples were procured through the Tissue Procurement Facility of the University Hospitals of Cleveland/Case Western Reserve University and with prior approval of the IRB of University Hospitals of Cleveland. The cartilage samples were obtained from patients undergoing total anthroplasty of the knee due to degenerative joint diseases. In all cases care was taken to use only “macroscopically normal” cartilage samples. No samples were exposed to radiation solely for the purpose of these studies but almost all patients will have received X-rays as part of their clinical presentation during the execution of care. The same donor tissue was not used in all experiments but untreated controls were included in all protocols.\n(§1) Full thickness cartilage slices (20-25 mg) were dissected from the cartilage using a sterile scalpel blade. Four to five cartilage pieces that were approximately equal in size and weight were transferred to each well of a 24-well, flat bottom plate (Nuns, Denmark) containing DMEM:F12 (1:1) supplemented with antibiotics and 10% FCS and cultured for 24 hours. Subsequently the cartilage explants were cultured overnight in serum free media. The cartilage explants were treated with IL-β alone or with IL-β positive test agents for 72 hours in serum free media. Explants cultured in the absence of IL-β or test agents were used as controls. Additionally, the actions of kuromanin or cyanidin chloride were examined independently of IL-β exposure (5 ng/mL). Where appropriate, explants were exposed to test agents 15 minutes prior to the treatment with IL-β. Total glycosaminoglycan present in the culture supernatant was estimated as described below.\nAt the end of culture period, the culture medium was collected from each group. A 50 uL aliquot of collected supernatant from each sample was utilized to estimate the total glycosaminoglycan (GAG) concentration by a colorimetric method employing a DMMB as previously described (Miller M J S et al., BMC Complementary and Alternative Med 2006 6; 13). Color intensity was read spectrophotometrically at 535 nm using the Lambda 25 spectrophotometer (Perkin-Elmer, CT) and the values were derived from a standard curve prepared using different concentrations of chondroitin sulfate. Results are expressed as micrograms of glycosaminoglycan released per mg of cartilage tissue."}, "IGF-1": {"test_system": "IGF-1", "test": "IGF-1 production by ELISA, human cartilage explants", "type": "cell-based", "conditions": "for IGF-1 production compared to IL-1 alone: human cartilage explants, 5 or 50 ug/mL (FIGS. 7, 8)", "method": "as §1\nHuman IGF-1 label in chondrocytes culture or cartilage explant media was quantified using a commercially available Human IGF-1 ELISA kit (R& D Systems) per manufacturer's directions."}, "[1]": {"test_system": "Human articular chondrocytes", "test": "Cell viability (calcein AM / ethidium homodimer staining)", "type": "cell-based", "conditions": "96 hours", "source_text": "Chondrocytes were isolated from non-arthritic regions of adult human articular cartilage (N=3 donors) and expanded in tissue culture flasks in DMEM supplemented with 10% calf serum.\nAt higher concentrations, the color of the anthocyanin interfered with the spectrophotometer reading; therefore, cell viability was additionally measured with calcein staining as follows: Live and dead cells were simultaneously viewed in situ with a confocal microscope (LSM 510; Zeiss, Wetzlar, Germany), using a fluorescent double stain. Calcein AM (1 uM; Invitrogen, Carlsbad, Calif.), a fluorescein derivative that is metabolized by nonspecific esterase present in viable cells, was used to stain live cells. The use of 8 uM ethidium homodimer (Invitrogen), a nucleic acid stain that is excluded by intact cell membranes, enabled visualization of the nuclei of dead cells. After 96-hour exposure to the appropriate concentration of anthocyanins, chondrocytes were cultured in DMEM supplemented with Calcein AM and ethidium homodimer for 45 minutes. Live and dead cells were counted using an automated image analysis script written in Matlab (MathWorks, Natick, Mass.) to measure percentage cell viability."}, "[2]": {"test_system": "bovine cartilage explants", "test": "Matrix synthesis (35S uptake) in bovine cartilage explants", "type": "cell-based"}, "[3]": {"test_system": "bovine cartilage explants", "test": "Mucopolysaccharide production (35 Sulfur uptake) in bovine cartilage explants", "type": "cell-based", "method": "Bovine cartilage explants were placed in culture including 10% FCS and Vitamin C. IL-1 was added to a test population and IL-1 was not added to control. Explants were cultured for 24 hours. Kuromanin chloride was then added to each culture. Mucopolysaccharides were measured using radioactive 35 Sulfur uptake."}, "bovine chondrocytes": {"test_system": "bovine chondrocytes", "test": "Matrix synthesis rate (35S) of bovine chondrocytes in alginate beads", "type": "cell-based", "conditions": "100 uM with TGF-β 10 ng/mL, 24 hours", "quoted_text": "Chondrocytes were isolated from weight-bearing regions of young (18-30 months old) bovine femoral condyles. Primary cells were obtained from 3 different animals and suspended in beads of 2% alginate. The alginate beads were precultured in DMEM supplemented with 10% calf serum for 48 hours. Before the experiments, the chondrocytes were serum-starved overnight with 0.1% serum to reduce the effect of serum and to reduce anabolic activity to baseline.\nFor each treatment condition, 10 millicuries of ^35S was added to each well and incubated for the appropriate duration. At the appropriate harvest time point, each well was then washed extensively with PBS (5-6 times with 500 uL, of PBS), before trypsin and EDTA was added to dissolve alginate. After 20-30 minutes, the dissolved gels and released cells were transferred into 1.5 ml Eppendorf tubes with 150 uL, of calf serum (to promote pellet formation) and the cells were centrifuged at 2000 rpm for 5 minutes. The supernatant was removed via pipette without disturbing the cell pellet. The remaining cell and supernatant (approximately 300 ul) was then mixed with 500 uL of PBS and transferred to scintillation vials, to which 5 ml of scintillation fluid was dispensed. Each scintillation vial was capped, thoroughly vortexed and then placed in a gamma counter to measure gamma radiation emission for each sample. Each sample was measured for 5 minutes."}, "[4]": {"conditions": "cited from earlier work"}, "[5]": {"conditions": "in vitro; cited from earlier work"}, "[6]": {"test_system": "rodent pancreatic beta-cells", "conditions": "in culture, with 4 and 10 mM glucose; cited from earlier work"}, "TGF-β": {"test_system": "TGF-β", "test": "TGF-β by ELISA after exposure of fibroblast cells to dextrose", "type": "cell-based", "conditions": "fibroblasts", "method": "(§2) For completeness, the relationship between a saccharide (dextrose) and TGF-β was also examined. Fibroblasts were treated with varying amounts of dextrose and measured for the release of TGF-β. […] It appeared that 0.5% glucose provided the greatest proliferation of fibroblasts."}, "fibroblast cells": {"test_system": "fibroblast cells", "test": "Fibroblast cell proliferation", "type": "cell-based", "conditions": "for cell proliferation: fibroblasts", "method": "as §2"}}, "note": "Entries after “also recorded” stand apart in the source; their conditions may differ.", "data": [{"smiles": "Oc1cc(O)c2cc(O)c(-c3ccc(O)c(O)c3)[o+]c2c1", "note": "[Cyanidin chloride]", "values": [{"measurement": "GAG release under basal conditions", "setting": "human cartilage explants", "result": "not evident"}, {"measurement": "IL-1 induced GAG release (chondroprotection)", "setting": "human cartilage explants; listed as CC1", "result": "blocked IL-1 induced GAG release"}, {"measurement": "IL-1 induced GAG release (chondroprotection)", "setting": "human cartilage explants; listed as cyanidin", "result": "able to prevent GAG (glycosaminoglycan) release compared to control; also recorded: effective chondroprotective agents limiting the degradation of human cartilage against the catabolic effects of IL-1"}, {"measurement": "IL-1 induced GAG release (chondroprotection)", "setting": "human cartilage explants; listed as cyanidin chloride", "result": "chondroprotective; also recorded: blocked"}, {"measurement": "IGF-1 production", "setting": "IGF-1; explants, IL-1 with high dose 50 ug/mL", "result": "no benefit was observed"}, {"measurement": "IGF-1 production", "setting": "IGF-1; explants, IL-1 with low dose 5 ug/mL", "result": "restoration of control IGF-1 production"}, {"measurement": "basal IGF-1 production", "setting": "IGF-1; explants, high dose alone", "result": "did not express basal IGF-1 production"}, {"measurement": "IGF-1 production compared to IL-1 alone", "setting": "IGF-1", "result": "increased; also recorded: greater than IL-1 alone when treated with cyanidin alone or in combination with IL-1"}, {"measurement": "cell viability", "setting": "[1]; 500 uM", "result": "completely reducing cell viability"}, {"measurement": "toxicity relative to the other compounds tested", "setting": "[1]; concentrations above 100 uM up to 500 uM", "result": "most toxic"}, {"measurement": "chondroprotective activity, greater than under low glucose", "setting": "[2]; higher glucose conditions (5%) as printed", "result": "~20", "unit": "%"}, {"measurement": "chondroprotective activity", "setting": "[2]; low glucose levels (2.5%) as printed", "result": "some chondroprotective activity"}]}, {"smiles": "OC[C@H]1O[C@@H](Oc2cc3c(O)cc(O)cc3[o+]c2-c2ccc(O)c(O)c2)[C@H](O)[C@@H](O)[C@@H]1O.[Cl-]", "note": "[Kuromanin chloride]", "values": [{"measurement": "GAG release under basal conditions", "setting": "human cartilage explants", "result": "some catabolic effects that may reflect cell toxicity; also recorded: tendency for the high dose of kuromanin to promote GAG release"}, {"measurement": "IL-1 induced GAG release (chondroprotection)", "setting": "human cartilage explants", "result": "able to prevent GAG (glycosaminoglycan) release compared to control; also recorded: effective chondroprotective agents limiting the degradation of human cartilage against the catabolic effects of IL-1; also recorded: blocked"}, {"measurement": "IL-1 induced GAG release (chondroprotection)", "setting": "human cartilage explants; listed as KuCl", "result": "blocked IL-1 induced GAG release"}, {"measurement": "IGF-1 production compared to IL-1 alone", "setting": "IGF-1", "result": "increased; also recorded: greater than IL-1 alone when treated with kuromanin alone or in combination with IL-1"}, {"measurement": "production of mucopolysaccharides", "setting": "[3]; bovine cartilage preincubated with IL-1", "result": "increased production of mucopolysaccharides; also recorded: increase of mucopolysaccharide"}, {"measurement": "production of mucopolysaccharides", "setting": "[3]; control bovine cartilage explants, no IL-1, listed as kuromanin", "result": "increase of mucopolysaccharide"}, {"measurement": "production of mucopolysaccharides", "setting": "[3]; control bovine cartilage explants, no IL-1, listed as kuromanin chloride", "result": "increased production of mucopolysaccharides"}, {"measurement": "matrix synthesis rates (growth factor synergy)", "setting": "bovine chondrocytes", "result": "synergistic effect on matrix synthesis rates"}, {"measurement": "half-life", "setting": "[4]", "result": "1.5 to 2", "unit": "h"}, {"measurement": "oxygen radical absorbing capacity compared to Trolox (Vitamin E)", "setting": "[5]", "result": 3.5, "unit": "times"}, {"measurement": "insulin secretion", "setting": "[6]", "result": "stimulate insulin secretion"}]}, {"smiles": "O=C[C@H](O)[C@@H](O)[C@H](O)[C@H](O)CO", "note": "[glucose]", "values": [{"measurement": "presence of TGF-β", "setting": "TGF-β; higher amounts of glucose", "result": "decreased the presence of TGF-β"}, {"measurement": "TGF-β expression", "setting": "TGF-β; varying amounts of dextrose", "result": "does not increase TGF-β expression"}, {"measurement": "concentration providing the greatest proliferation of fibroblasts", "setting": "fibroblast cells", "result": 0.5, "unit": "%"}, {"measurement": "cell proliferation", "setting": "fibroblast cells; higher concentrations of glucose", "result": "did not"}, {"measurement": "cell proliferation", "setting": "fibroblast cells; lower concentrations of glucose", "result": "increased cell proliferation"}]}]}
